{
  "source": "patent US10899639B2",
  "about": "“Composition and method for inhibiting microbial adhesion on surfaces” (SOLENIS TECHNOLOGIES, L.P., priority 2017, dated 2021)",
  "tested_on": "Biofilms grown on stainless steel 316 coupons",
  "assay": "biofilm reduction on stainless steel 316 coupons from CDC Biofilm reactor, viable cell plating",
  "format": "cell-based",
  "settings": "two hours at 28° C. with shaking",
  "protocol": "Biofilms were grown on stainless steel 316 coupons in a CDC Biofilm reactor using […] minimal salts growth media for a period of twenty-four hours. […] A control was done with […] media. After the biofilms were grown, each coupon from the rods in the CDC reactor was unscrewed and dropped into a well of the plate. The plate was then incubated for two hours at 28° C. with shaking. Following the incubation, the coupons were removed from the wells and placed into 5 mL of phosphate-buffered saline (PBS) and sonicated for six minutes. Viable cells released into the fluid were then determined by a plating method. The results are recorded as the percent reduction in cell counts relative to the control.",
  "data": [
    {"substance": "sodium dodecylbenzene sulfonate [Biosoft D-40]", "values": [
      {"measurement": "percent reduction in cell counts relative to the control", "setting": "LAS 40 ppm actives", "result": 41.83, "unit": "%"},
      {"measurement": "percent reduction in cell counts relative to the control", "setting": "LAS 100 ppm actives", "result": 81.58, "unit": "%"}
    ]}
  ]
}
